The subject of assay [1] is T47D human breast cancer cells. The assay can be described thus: T47D Human Breast Cancer Cells Assay (alkaline phosphatase). It counts as cell-based. The conditions noted are these: 24 h with test compound, luminescence. The method, then: T47D Human Breast Cancer Cells Assay
T47D human breast cancer cells were grown in RPMI medium without phenol red (Invitrogen) containing 10% (v/v) heat-inactivated fetal bovine serum (FBS; Hyclone), 1% (v/v) penicillin-streptomycin (Invitrogen), 1% (w/v) glutamine (Invitrogen), and […] insulin (Sigma). Incubation conditions were 37° C. in a humidified 5% (v/v) carbon dioxide environment.
The cells were plated in 96-well tissue culture plates at 10,000 cells per well in assay medium [RPMI medium without phenol red (Invitrogen) containing 5% (v/v) charcoal-treated FBS (Hyclone) and 1% (v/v) penicillin-streptomycin (Invitrogen)]. Two days later, the medium was decanted and test compound or control were added at a final concentration of 0.1% (v/v) dimethyl sulfoxide in fresh assay medium. Twenty-four hours later, an alkaline phosphatase assay was performed using a SEAP kit (BD Biosciences Clontech, Palo Alto, Calif.). Briefly, the medium was decanted and the cells were fixed for 30 minutes at room temperature with 5% (v/v) formalin (Sigma). The cells were washed once with room temperature Hank's buffered saline solution (Invitrogen). Equal volumes (0.05 mL) of 1× Dilution Buffer, Assay Buffer and 1:20 substrate/enhancer mixture were then added. After 1 hour incubation at room temperature in the dark, the lysate was transferred to a white 96-well plate (Dynex) and luminescence was read using a LuminoSkan Ascent (Thermo Electron, Woburn, Mass.).

Assay [2] deals with A549 Human lung carcinoma cells. The assay can be described thus: A549 Human Lung Cell Assay (transfected, dexamethasone challenge, Luc-assay). Format: cell-based. The conditions noted are these: Dexamathasone challenge, 24 h. The method, then:
A549 Human Lung Cell Assay
A549 Human lung carcinoma cells were grown in F-12K Nutrient Mixture containing 10% (v/v) fetal bovine serum (FBS; Invitrogen), 2 mM glutamine and 0.15% sodium dicarbonate (Invitrogen).
A549 cells were split 1 to 3 in 175 cm tissue culture flask. The cells were incubated at 37° C. in CO2 incubator until the cells were 95% confluent (typically 24-30 hours).
The following solutions were prepared in sterile tubes: (a) Solution A: 1.5 μg/ml of DNA in 8.5 ml OPTI-MEM I Reduced Serum Medium. (GIBCO cat# 31985) and (b) Solution B: 6 μl/ml of DMRIE-C Reagent into […] OPTI-MEM I. The two solutions were combined and mixed gently, then incubated at room temperature for 40 minutes.
The A549 cells prepared above were washed with […] of OPTI-MEM I. The medium was removed and 17 ml of the lipid-DNA complex solution was overlayed onto cells. The cells ere then incubated for 16 h at 37° C. in CO2 incubator. The DNA-containing medium was removed and 30 ml of growth medium was added. (5% Charcoal treated FBS) After 5-6 h, the cells were seeded in a 96 well plate and the cells incubated overnight at 37° C. in CO2 incubator.
To each well was then added 5 μl of test compounds and the cells incubated at 37° C. for 10 min. 5 μL of Dexamathasone (CAS [50-02-2]), was then added to each well for challenger and the cells incubated at 37° C. in CO2 incubator for 24 h. 100 μl of Luc-assay buffer was then added into each cell well and the cells incubated for 30 min at room temperature. A 150 μL sample from each well was then transferred into a DYNEX Microlitel plate and read on Top-counter.

For 17 compounds, IC50 results are on record in patent publication US7763648B2, “Oxa-steroids derivatives as selective progesterone receptor modulators” (Janssen Pharmaceutica N.V., priority 2006, dated 2010).

Turning to `C#C[C@]1(O)CC[C@H]2[C@@H]3OCC4=CC(=O)CCC4=C3C(c3ccc(N(C)C)cc3)C[C@@]21C` (stereo in doubt) [Compound 4, 11-(4-Dimethylamino-phenyl)-17-ethynyl-17-hydroxy-13-methyl-1,2,8,11,12,13,14,15,16,17-decahydro-6H-7-oxa-cyclopenta[a]phenanthren-3-one], the values for the IC50 in assay [1] and in assay [2] were 19 nM and 204 nM, respectively.

Consider `CN(C)c1ccc(C2C[C@@]3(C)[C@@H](CC[C@@]3(O)C#CC(C)(C)C)[C@@H]3OCC4=CC(=O)CCC4=C23)cc1` (stereo in doubt) [Compound 5, 11-(4-Dimethylamino-phenyl)-17-(3,3-dimethyl-but-1-ynyl)-17-hydroxy-13-methyl-1,2,8,11,12,13,14,15,16,17-decahydro-6H-7-oxa-cyclopenta[a]phenanthren-3-one], for which the IC50 is 185 nM in assay [1] and 167 nM in assay [2].

Turning to `CN(C)c1ccc(C2C[C@@]3(C)[C@@H](CC[C@@]3(O)C#CC(C)(C)O)[C@@H]3OCC4=CC(=O)CCC4=C23)cc1` (stereo in doubt) [Compound 6, 11-(4-Dimethylamino-phenyl)-17-hydroxy-17-(3-hydroxy-3-methyl-but-1-ynyl)-13-methyl-1,2,8,11,12,13,14,15,16,17-decahydro-6H-7-oxa-cyclopenta[a]phenanthren-3-one], the IC50 in assay [1] is above 1000 nM; in assay [2], 559 nM.

Regarding `CN(C)c1ccc(C2C[C@@]3(C)[C@@H](CC[C@@]3(O)C#Cc3ccc(C(C)(C)C)cc3)[C@@H]3OCC4=CC(=O)CCC4=C23)cc1` (stereo in doubt) [Compound 10, 17-(4-tert-Butyl-phenylethynyl)-11-(4-dimethylamino-phenyl)-17-hydroxy-13-methyl-1,2,8,11,12,13,14,15,16,17-decahydro-6H-7-oxa-cyclopenta[a]phenanthren-3-one], the IC50 in assay [1] came out at 19.5 nM; in assay [2] it was 65.8 nM.

Turning to `CN(C)c1ccc(C2C[C@@]3(C)[C@@H](CC[C@@]3(O)C#CC(F)(F)F)[C@@H]3OCC4=CC(=O)CCC4=C23)cc1` (stereo in doubt) [Compound 13, 11-(4-Dimethylamino-phenyl)-17-hydroxy-13-methyl-17-trifluoroprop-1-ynyl-1,2,8,11,12,13,14,15,16,17-decahydro-6H-7-oxa-cyclopenta[a]phenanthren-3-one], the IC50 stood at 18.6 nM in assay [1] and 55.5 nM in assay [2].

In the case of `CN(C)c1ccc(C2C[C@@]3(C)[C@@H](CC[C@@]3(O)C#Cc3ccccn3)[C@@H]3OCC4=CC(=O)CCC4=C23)cc1` (stereo in doubt) [Compound 26, 11-(4-Dimethylamino-phenyl)-17-hydroxy-13-methyl-17-pyridin-2-ylethynyl-1,2,8,11,12,13,14,15,16,17-decahydro-6H-7-oxa-cyclopenta[a]phenanthren-3-one], the results for the IC50 in assay [1] and in assay [2] were 34 nM and 175 nM, respectively.

As to `CN(C)c1ccc(C2C[C@@]3(C)[C@@H](CC[C@@]3(O)C#Cc3cccnc3)[C@@H]3OCC4=CC(=O)CCC4=C23)cc1` (stereo in doubt) [Compound 27, 11-(4-Dimethylamino-phenyl)-17-hydroxy-13-methyl-17-pyridin-3-ylethynyl-1,2,8,11,12,13,14,15,16,17-decahydro-6H-7-oxa-cyclopenta[a]phenanthren-3-one], the IC50 was 21 nM in assay [1] and 342 nM in assay [2].

With `CN(C)c1ccc(C2C[C@@]3(C)[C@@H](CC[C@@]3(O)C#Cc3ccncc3)[C@@H]3OCC4=CC(=O)CCC4=C23)cc1` (stereo in doubt) [Compound 28, 11-(4-Dimethylamino-phenyl)-17-hydroxy-13-methyl-17-pyridin-4-ylethynyl-1,2,8,11,12,13,14,15,16,17-decahydro-6H-7-oxa-cyclopenta[a]phenanthren-3-one], the values for the IC50 in assay [1] and in assay [2] were 39 nM and 246 nM, respectively.

Turning to `COCC#C[C@]1(O)CC[C@H]2[C@@H]3OCC4=CC(=O)CCC4=C3C(c3ccc(N(C)C)cc3)C[C@@]21C` (stereo in doubt) [Compound 30, 11-(4-Dimethylamino-phenyl)-17-hydroxy-17-(3-methoxy-prop-1-ynyl)-13-methyl-1,2,8,11,12,13,14,15,16,17-decahydro-6H-7-oxa-cyclopenta[a]phenanthren-3-one], the figures for the IC50 in assay [1] and in assay [2] were 600 nM and 315 nM, respectively.

With `CC#C[C@]1(O)CC[C@H]2[C@@H]3OCC4=CC(=O)CCC4=C3[C@@H](c3ccc(N(C)C)cc3)C[C@@]21C` [Compound 1, 11-(4-Dimethylamino-phenyl)-17-hydroxy-13-methyl-17-prop-1-ynyl-1,2,8,11,12,13,14,15,16,17-decahydro-6H-7-oxa-cyclopenta[a]phenanthren-3-one], the IC50 in assay [1] amounted to 5.15 nM; in assay [2], 86.5 nM.

In the case of `CN(C)c1ccc([C@H]2C[C@@]3(C)[C@@H](CC[C@@]3(O)C#CC3CC3)[C@@H]3OCC4=CC(=O)CCC4=C32)cc1` [Compound 2, 17-Cyclopropylethynyl-11-(4-dimethylamino-phenyl)-17-hydroxy-13-methyl-1,2,8,11,12,13,14,15,16,17-decahydro-6H-7-oxa-cyclopenta[a]phenanthren-3-one], the figures for the IC50 in assay [1] and in assay [2] were 9.55 nM and 33.4 nM, respectively.

As to `CN(C)c1ccc([C@H]2C[C@@]3(C)[C@@H](CC[C@@]3(O)C#Cc3ccccc3)[C@@H]3OCC4=CC(=O)CCC4=C32)cc1` [Compound 3, 11-(4-Dimethylamino-phenyl)-17-hydroxy-13-methyl-17-phenylethynyl-1,2,8,11,12,13,14,15,16,17-decahydro-6H-7-oxa-cyclopenta[a]phenanthren-3-one], the IC50 in assay [1] worked out at 1.38 nM; in assay [2], 304 nM.

Regarding `Cc1ccc(C#C[C@]2(O)CC[C@H]3[C@@H]4OCC5=CC(=O)CCC5=C4[C@@H](c4ccc(N(C)C)cc4)C[C@@]32C)cc1` [Compound 7, 11-(4-Dimethylamino-phenyl)-17-hydroxy-13-methyl-17-p-tolylethynyl-1,2,8,11,12,13,14,15,16,17-decahydro-6H-7-oxa-cyclopenta[a]phenanthren-3-one], the IC50 in assay [1] worked out at 1.6 nM; in assay [2], 22.1 nM.

As to `CN(C)c1ccc([C@H]2C[C@@]3(C)[C@@H](CC[C@@]3(O)C#Cc3ccc(F)cc3)[C@@H]3OCC4=CC(=O)CCC4=C32)cc1` [Compound 8, 11-(4-Dimethylamino-phenyl)-17-(4-fluoro-phenylethynyl)-17-hydroxy-13-methyl-1,2,8,11,12,13,14,15,16,17-decahydro-6H-7-oxa-cyclopenta[a]phenanthren-3-one], the figures for the IC50 in assay [1] and in assay [2] were 0.269 nM and 37.6 nM, respectively.

For `CN(C)c1ccc([C@H]2C[C@@]3(C)[C@@H](CC[C@@]3(O)C#Cc3ccc(C(F)(F)F)cc3)[C@@H]3OCC4=CC(=O)CCC4=C32)cc1` [Compound 9], the IC50 in assay [1] was 0.748 nM; in assay [2], 111 nM.

In the case of `CN(C)c1ccc([C@H]2C[C@@]3(C)[C@@H](CC[C@@]3(O)C#Cc3ccc(Br)cc3)[C@@H]3OCC4=CC(=O)CCC4=C32)cc1` [Compound 11, 17-(4-Bromo-phenylethynyl)-11-(4-dimethylamino-phenyl)-17-hydroxy-13-methyl-1,2,8,11,12,13,14,15,16,17-decahydro-6H-7-oxa-cyclopenta[a]phenanthren-3-one], the IC50 was 0.943 nM in assay [1] and 31.3 nM in assay [2].

As for `CN(C)c1ccc([C@H]2C[C@@]3(C)[C@@H](CC[C@@]3(O)C#Cc3ccc(Cl)cc3)[C@@H]3OCC4=CC(=O)CCC4=C32)cc1` [Compound 12, 17-(4-Chloro-phenylethynyl)-11-(4-dimethylamino-phenyl)-17-hydroxy-13-methyl-1,2,8,11,12,13,14,15,16,17-decahydro-6H-7-oxa-cyclopenta[a]phenanthren-3-one], the IC50 in assay [1] turned out to be 0.613 nM; in assay [2], 43.5 nM.
